Data published in PubChem BioAssay (NCI).
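These data come from cells grown in 96-well plates and exposed to compound for 48 hours at five concentrations. At the TGI there is no net growth.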

Assays:
Test in all cases: NCI anticancer screen, dose series, 48 h
[1] = test system: XF 498 CNS
[2] = test system: RPMI-8226 leukemia
[3] = test system: LOX IMVI melanoma
[4] = test system: DMS 273 small cell lung
[5] = test system: M19-MEL melanoma
[6] = test system: K-562 leukemia
[7] = test system: EKVX NSCLC
[8] = test system: A549 NSCLC
[9] = test system: SNB-78 CNS
[10] = test system: HOP-18 NSCLC
[11] = test system: A498 renal

N#CCCC(C#N)(C#N)CCC#N
TGI [1]: > 100 µM
TGI [2]: > 100 µM
TGI [3]: > 100 µM
TGI [4]: > 100 µM
TGI [5]: > 100 µM
TGI [6]: > 100 µM
TGI [7]: > 100 µM
TGI [8]: > 100 µM

Cc1ccccc1N(CCC#N)C1=NN(C(=O)CC(=O)Nc2ccc(Cl)cc2)C(c2ccccc2)C1 (stereo not given)
TGI [2]: > 100 µM
TGI [4]: > 100 µM
TGI [5]: > 100 µM
TGI [6]: > 100 µM
TGI [7]: > 100 µM
TGI [9]: > 100 µM
TGI [10]: > 100 µM
TGI [8]: > 100 µM

COc1cc2ccnc(C#N)c2cc1OCc1ccccc1
TGI [1]: > 100 µM
TGI [11]: > 100 µM
TGI [2]: > 100 µM
TGI [6]: > 100 µM
TGI [7]: > 100 µM
TGI [9]: > 100 µM
TGI [10]: > 100 µM
TGI [8]: > 100 µM

c1cc2c(cc1C1OCC3C(c4ccc5c(c4)OCO5)OCC13)OCO2 (stereo not given)
TGI [1]: 99.8 µM
TGI [11]: > 100 µM
TGI [3]: > 100 µM
TGI [5]: > 100 µM
TGI [6]: > 100 µM
TGI [7]: > 100 µM
TGI [9]: > 100 µM
TGI [10]: > 100 µM
TGI [8]: > 100 µM

CN1CCCS/C1=C1/SC(=S)N(c2ccccc2)C1=O
TGI [1]: > 100 µM
TGI [11]: > 100 µM
TGI [2]: > 100 µM
TGI [3]: > 100 µM
TGI [4]: > 100 µM
TGI [5]: > 100 µM
TGI [6]: > 100 µM
TGI [7]: > 100 µM
TGI [9]: > 100 µM
TGI [10]: > 100 µM
TGI [8]: > 100 µM

COc1ccc(S(=O)(=O)N/N=C(\C)CN2C(=O)c3ccccc3C2=O)cc1OC
TGI [1]: > 100 µM
TGI [11]: > 100 µM
TGI [2]: > 100 µM
TGI [4]: > 100 µM
TGI [5]: > 100 µM
TGI [6]: > 100 µM
TGI [7]: > 100 µM
TGI [9]: > 100 µM
TGI [10]: > 100 µM
TGI [8]: > 100 µM

CN(C)CC1(Cc2ccccc2)CC/C(=C\c2ccccc2)C1=O (stereo not given)
TGI [1]: > 100 µM
TGI [11]: > 100 µM
TGI [2]: 55.7 µM
TGI [3]: 74.9 µM
TGI [4]: > 100 µM
TGI [5]: 64.6 µM
TGI [6]: > 100 µM
TGI [9]: > 100 µM
TGI [10]: > 100 µM
TGI [8]: > 100 µM

O=C1CCC(=O)c2ccccc2N1
TGI [1]: > 100 µM
TGI [11]: > 100 µM
TGI [2]: > 100 µM
TGI [3]: > 100 µM
TGI [4]: > 100 µM
TGI [5]: > 100 µM
TGI [6]: > 100 µM
TGI [7]: > 100 µM
TGI [10]: > 100 µM
TGI [8]: > 100 µM

O=C1c2ccccc2C(=O)c2c1oc1cc(O)c(Cl)cc21
TGI [1]: 20.2 µM
TGI [11]: 34 µM
TGI [2]: 55.3 µM
TGI [3]: 7.88 µM
TGI [4]: 10.8 µM
TGI [5]: 0.445 µM
TGI [6]: 43.9 µM
TGI [7]: 29.6 µM
TGI [9]: 19.5 µM
TGI [10]: 6.79 µM
TGI [8]: 9.46 µM

COc1cc(C2C(C(=O)NCc3ccccc3)=C(C)NC(C)=C2C(=O)NCc2ccccc2)ccc1O
TGI [1]: > 100 µM
TGI [11]: > 100 µM
TGI [2]: 73.6 µM
TGI [3]: > 100 µM
TGI [4]: > 100 µM
TGI [5]: > 100 µM
TGI [6]: > 100 µM
TGI [7]: > 100 µM
TGI [9]: > 100 µM
TGI [8]: > 100 µM
